Assay [1] deals with T1, Androgen receptor (Rattus norvegicus, UniProt P15207).
T1 sequence (P15207 whole entry): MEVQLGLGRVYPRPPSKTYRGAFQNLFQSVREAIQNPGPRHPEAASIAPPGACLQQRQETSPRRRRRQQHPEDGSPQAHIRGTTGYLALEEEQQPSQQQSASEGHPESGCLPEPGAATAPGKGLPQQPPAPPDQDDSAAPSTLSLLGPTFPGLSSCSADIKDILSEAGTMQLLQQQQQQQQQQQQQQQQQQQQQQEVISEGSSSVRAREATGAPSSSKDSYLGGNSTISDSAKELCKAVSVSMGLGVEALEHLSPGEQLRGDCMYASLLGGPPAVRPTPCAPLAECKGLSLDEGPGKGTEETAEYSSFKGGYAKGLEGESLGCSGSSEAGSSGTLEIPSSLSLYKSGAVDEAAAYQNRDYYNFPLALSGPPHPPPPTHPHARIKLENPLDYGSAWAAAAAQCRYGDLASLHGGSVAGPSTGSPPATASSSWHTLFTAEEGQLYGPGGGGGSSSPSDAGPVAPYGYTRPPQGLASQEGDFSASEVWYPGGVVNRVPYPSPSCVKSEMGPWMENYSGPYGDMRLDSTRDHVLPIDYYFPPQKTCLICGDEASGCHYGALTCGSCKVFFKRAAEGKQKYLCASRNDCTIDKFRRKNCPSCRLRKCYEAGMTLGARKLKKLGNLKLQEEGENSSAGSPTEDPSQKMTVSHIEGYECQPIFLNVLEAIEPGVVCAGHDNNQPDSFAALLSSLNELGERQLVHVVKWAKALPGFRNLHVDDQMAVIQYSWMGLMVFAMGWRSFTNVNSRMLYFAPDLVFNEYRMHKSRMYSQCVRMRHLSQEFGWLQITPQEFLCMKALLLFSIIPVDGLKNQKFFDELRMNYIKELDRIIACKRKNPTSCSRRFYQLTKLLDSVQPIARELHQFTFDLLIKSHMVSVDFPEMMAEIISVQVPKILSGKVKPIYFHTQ
It counts as functional.

In assay [2] the target is T2, Prostaglandin G/H synthase 1 (Rattus norvegicus, UniProt Q63921).
T2 sequence (Q63921 whole entry): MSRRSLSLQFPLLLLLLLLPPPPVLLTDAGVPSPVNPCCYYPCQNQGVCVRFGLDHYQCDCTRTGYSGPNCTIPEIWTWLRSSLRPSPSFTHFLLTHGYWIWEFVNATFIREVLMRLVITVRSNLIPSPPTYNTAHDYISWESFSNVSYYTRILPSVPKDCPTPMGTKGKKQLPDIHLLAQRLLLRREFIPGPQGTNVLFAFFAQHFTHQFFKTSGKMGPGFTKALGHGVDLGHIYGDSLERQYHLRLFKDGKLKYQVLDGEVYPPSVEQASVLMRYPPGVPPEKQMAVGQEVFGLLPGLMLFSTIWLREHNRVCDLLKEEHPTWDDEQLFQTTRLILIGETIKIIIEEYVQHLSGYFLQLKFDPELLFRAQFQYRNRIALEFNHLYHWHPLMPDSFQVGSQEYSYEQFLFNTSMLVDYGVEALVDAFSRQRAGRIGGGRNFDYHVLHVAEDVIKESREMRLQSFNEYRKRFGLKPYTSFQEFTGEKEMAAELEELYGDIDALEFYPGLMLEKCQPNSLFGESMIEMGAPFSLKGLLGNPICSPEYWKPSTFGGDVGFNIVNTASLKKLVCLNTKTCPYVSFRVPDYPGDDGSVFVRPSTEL
The format is functional.

Assay [3] concerns the target D(1A) dopamine receptor (Homo sapiens, UniProt P21728). It counts as functional, cell-based.
Assay [4] has as its target Epidermal growth factor receptor (Homo sapiens, UniProt P00533). The format is functional.
In assay [5] the target is Receptor tyrosine-protein kinase erbB-2 (Homo sapiens, UniProt P04626). It counts as functional.
Chain of Receptor tyrosine-protein kinase erbB-2 (P04626 whole entry): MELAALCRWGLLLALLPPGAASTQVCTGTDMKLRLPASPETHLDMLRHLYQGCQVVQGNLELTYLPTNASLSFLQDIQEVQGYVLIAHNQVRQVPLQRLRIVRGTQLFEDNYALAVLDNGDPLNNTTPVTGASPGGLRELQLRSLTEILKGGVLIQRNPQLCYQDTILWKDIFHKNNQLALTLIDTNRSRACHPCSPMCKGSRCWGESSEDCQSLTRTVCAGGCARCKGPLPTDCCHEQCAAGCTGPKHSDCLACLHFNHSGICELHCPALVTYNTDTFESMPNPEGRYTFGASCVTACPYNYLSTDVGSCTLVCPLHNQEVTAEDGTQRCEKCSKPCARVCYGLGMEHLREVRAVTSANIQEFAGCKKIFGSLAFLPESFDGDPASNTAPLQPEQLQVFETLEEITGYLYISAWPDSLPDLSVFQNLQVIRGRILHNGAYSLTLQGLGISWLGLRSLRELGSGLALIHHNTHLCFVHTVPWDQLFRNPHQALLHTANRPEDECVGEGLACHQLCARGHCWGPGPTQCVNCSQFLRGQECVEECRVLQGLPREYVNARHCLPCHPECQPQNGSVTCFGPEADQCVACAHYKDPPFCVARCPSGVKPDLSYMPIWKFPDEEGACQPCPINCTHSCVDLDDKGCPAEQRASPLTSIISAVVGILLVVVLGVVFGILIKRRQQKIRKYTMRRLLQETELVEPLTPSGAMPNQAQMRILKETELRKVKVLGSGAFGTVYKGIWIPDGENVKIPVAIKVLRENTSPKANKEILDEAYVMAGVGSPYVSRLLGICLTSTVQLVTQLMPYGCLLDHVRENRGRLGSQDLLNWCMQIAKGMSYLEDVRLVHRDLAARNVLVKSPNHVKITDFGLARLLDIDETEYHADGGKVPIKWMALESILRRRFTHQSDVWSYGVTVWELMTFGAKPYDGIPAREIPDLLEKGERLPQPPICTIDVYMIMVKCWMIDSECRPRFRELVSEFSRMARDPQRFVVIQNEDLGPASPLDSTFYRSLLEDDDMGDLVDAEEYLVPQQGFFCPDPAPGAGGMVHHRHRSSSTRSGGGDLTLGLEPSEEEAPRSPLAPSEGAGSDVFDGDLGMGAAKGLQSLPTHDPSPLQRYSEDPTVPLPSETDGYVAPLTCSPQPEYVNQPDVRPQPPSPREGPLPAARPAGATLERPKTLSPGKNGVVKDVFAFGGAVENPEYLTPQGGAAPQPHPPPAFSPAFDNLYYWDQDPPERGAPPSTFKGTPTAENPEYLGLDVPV
Assay [6] concerns the target Acetylcholinesterase (Homo sapiens, UniProt P22303). The format is functional.
Assay [7] addresses Vascular endothelial growth factor receptor 2 (Homo sapiens, UniProt P35968). It counts as functional.
Assay [8] concerns the target T3, Muscarinic acetylcholine receptor M4 (Homo sapiens, UniProt P08173).
T3 sequence (P08173 whole entry): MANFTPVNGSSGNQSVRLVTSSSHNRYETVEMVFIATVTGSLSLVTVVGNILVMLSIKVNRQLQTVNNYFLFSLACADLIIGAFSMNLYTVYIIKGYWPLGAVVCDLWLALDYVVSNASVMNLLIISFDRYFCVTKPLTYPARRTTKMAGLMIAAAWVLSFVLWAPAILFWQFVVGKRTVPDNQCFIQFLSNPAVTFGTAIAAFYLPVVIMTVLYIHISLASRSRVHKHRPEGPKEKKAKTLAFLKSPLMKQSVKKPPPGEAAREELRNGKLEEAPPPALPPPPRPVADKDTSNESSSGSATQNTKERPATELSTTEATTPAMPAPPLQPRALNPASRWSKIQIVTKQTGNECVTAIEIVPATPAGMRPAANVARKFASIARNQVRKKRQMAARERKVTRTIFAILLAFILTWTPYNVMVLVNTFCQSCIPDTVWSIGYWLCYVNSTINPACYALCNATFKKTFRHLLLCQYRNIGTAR

The target of assay [9] is T4, Peroxisome proliferator-activated receptor alpha (Homo sapiens, UniProt Q07869).
T4 sequence (Q07869 whole entry): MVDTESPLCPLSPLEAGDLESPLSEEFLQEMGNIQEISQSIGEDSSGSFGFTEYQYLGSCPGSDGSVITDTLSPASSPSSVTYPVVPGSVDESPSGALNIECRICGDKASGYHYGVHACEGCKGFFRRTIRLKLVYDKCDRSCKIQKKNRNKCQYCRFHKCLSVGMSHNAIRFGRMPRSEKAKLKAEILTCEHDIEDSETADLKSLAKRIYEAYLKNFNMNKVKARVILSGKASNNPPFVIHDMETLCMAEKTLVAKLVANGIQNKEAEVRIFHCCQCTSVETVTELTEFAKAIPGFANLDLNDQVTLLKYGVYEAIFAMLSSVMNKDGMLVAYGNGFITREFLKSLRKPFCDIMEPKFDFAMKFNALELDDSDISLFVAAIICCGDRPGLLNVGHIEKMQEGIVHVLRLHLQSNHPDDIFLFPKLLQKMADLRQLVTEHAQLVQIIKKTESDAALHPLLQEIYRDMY
The format is functional.

In assay [10] the target is T1, Androgen receptor.
Assay [11] addresses 5-hydroxytryptamine receptor 5A (Homo sapiens, UniProt P47898).

Structures are written as SMILES.
Further: assay procedure not described here.

Chain of 5-hydroxytryptamine receptor 5A (P47898 whole entry): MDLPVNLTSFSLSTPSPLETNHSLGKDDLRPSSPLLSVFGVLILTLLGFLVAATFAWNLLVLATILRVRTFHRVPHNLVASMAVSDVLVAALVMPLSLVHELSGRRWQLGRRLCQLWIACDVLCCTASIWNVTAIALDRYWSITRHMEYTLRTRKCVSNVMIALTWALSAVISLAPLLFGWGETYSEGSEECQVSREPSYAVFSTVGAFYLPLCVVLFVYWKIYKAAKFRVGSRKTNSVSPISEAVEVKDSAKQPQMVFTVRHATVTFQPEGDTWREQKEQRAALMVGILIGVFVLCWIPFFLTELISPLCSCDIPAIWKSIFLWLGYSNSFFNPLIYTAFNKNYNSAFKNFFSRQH
Chain of D(1A) dopamine receptor (P21728 whole entry): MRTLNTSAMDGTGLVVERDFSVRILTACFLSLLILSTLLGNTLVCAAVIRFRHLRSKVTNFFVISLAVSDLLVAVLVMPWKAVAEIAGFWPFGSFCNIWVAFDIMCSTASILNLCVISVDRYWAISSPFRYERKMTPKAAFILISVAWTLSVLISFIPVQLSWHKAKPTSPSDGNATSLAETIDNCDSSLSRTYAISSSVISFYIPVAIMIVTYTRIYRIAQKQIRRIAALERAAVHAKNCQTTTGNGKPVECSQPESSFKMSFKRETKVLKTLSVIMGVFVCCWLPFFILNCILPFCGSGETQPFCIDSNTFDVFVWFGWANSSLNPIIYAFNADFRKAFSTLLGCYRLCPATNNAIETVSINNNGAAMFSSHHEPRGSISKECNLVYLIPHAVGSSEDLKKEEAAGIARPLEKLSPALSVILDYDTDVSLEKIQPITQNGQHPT
Chain of Vascular endothelial growth factor receptor 2 (P35968 whole entry): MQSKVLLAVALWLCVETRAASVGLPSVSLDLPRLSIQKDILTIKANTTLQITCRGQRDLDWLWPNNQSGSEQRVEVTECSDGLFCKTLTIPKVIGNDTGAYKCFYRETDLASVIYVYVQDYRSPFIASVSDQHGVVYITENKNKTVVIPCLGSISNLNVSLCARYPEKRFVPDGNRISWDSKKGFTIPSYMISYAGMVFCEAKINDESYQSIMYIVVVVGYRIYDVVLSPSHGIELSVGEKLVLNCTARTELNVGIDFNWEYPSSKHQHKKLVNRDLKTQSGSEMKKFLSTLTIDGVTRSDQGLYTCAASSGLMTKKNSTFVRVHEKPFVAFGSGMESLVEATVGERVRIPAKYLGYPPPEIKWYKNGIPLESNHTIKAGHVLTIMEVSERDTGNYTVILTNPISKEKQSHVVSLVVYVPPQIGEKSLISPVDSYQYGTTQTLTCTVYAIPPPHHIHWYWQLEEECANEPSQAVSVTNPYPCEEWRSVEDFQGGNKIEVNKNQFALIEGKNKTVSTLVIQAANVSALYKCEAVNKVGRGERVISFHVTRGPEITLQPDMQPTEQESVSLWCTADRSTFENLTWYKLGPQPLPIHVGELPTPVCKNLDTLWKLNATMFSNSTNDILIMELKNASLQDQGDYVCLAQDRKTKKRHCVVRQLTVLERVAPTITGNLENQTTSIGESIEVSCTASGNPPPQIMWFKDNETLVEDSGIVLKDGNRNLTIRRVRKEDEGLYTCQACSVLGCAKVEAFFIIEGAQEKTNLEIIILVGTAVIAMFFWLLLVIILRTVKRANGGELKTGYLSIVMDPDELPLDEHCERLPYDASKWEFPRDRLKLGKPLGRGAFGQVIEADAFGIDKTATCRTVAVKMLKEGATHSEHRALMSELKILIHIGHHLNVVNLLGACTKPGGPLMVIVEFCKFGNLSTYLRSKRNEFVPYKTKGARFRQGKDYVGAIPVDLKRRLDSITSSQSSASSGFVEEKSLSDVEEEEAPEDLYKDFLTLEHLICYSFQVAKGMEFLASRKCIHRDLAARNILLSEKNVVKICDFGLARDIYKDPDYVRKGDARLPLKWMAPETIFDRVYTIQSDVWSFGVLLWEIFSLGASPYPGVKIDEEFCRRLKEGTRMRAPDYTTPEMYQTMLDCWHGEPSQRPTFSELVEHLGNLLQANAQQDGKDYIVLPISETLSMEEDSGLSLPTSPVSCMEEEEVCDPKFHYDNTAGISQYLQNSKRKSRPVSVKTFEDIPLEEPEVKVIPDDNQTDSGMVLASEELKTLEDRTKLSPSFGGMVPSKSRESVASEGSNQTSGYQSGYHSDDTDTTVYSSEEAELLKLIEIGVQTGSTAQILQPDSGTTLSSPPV
Chain of Acetylcholinesterase (P22303 whole entry): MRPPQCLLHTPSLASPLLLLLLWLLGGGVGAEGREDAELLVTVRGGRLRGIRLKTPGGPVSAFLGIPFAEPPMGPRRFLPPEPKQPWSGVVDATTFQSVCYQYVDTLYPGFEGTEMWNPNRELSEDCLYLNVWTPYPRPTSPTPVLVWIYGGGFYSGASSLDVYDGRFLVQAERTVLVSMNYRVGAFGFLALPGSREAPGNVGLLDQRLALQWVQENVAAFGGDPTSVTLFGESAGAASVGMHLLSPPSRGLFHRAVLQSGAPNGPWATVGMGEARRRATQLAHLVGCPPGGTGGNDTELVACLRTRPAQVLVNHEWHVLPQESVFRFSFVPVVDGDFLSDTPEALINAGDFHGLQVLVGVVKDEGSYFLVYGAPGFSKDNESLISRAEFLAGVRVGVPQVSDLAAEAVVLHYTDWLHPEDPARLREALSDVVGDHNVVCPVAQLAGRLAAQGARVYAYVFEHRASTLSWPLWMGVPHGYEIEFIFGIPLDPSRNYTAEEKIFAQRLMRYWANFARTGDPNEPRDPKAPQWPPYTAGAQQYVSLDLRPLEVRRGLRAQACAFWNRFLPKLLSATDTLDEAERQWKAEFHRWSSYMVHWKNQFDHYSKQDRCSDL

What is called AC50 is the concentration at which the activity in the assay is half-maximal. High values mean weaker potency, low ones greater potency. Take `C[C@@H](NCCCc1cccc(C(F)(F)F)c1)c1cccc2ccccc12`: the AC50 in assay [1] was over 30 µM.
With `COc1ccc(CC2c3cc(OC)c(OC)cc3CC[N+]2(C)CCC(=O)OCCCCCOC(=O)CC[N+]2(C)CCc3cc(OC)c(OC)cc3C2Cc2ccc(OC)c(OC)c2)cc1OC` (stereo not drawn), the results for the AC50 in [1] and in assay [2] were over 30 µM and 18.9 µM, respectively.
Consider `CCN1CCN(Cc2ccc(Nc3ncc(F)c(-c4cc(F)c5nc(C)n(C(C)C)c5c4)n3)nc2)CC1` [ABEMACICLIB], for which the AC50 in assay [3] is over 30 µM; in assay [4], 9.5 µM; in [5] it was over 30 µM; in assay [6] it was over 30 µM; in assay [7], 14 µM.
Take `CCCN(CCC)C(=O)Cc1c(-c2ccc(Cl)cc2)nc2ccc(Cl)cn12` [ALPIDEM]: the AC50 in [8] was over 10 µM.
For `COc1ccccc1Oc1c(NS(=O)(=O)c2ccc(C(C)(C)C)cc2)nc(-c2ncccn2)nc1OCCO` [BOSENTAN], in [9], the AC50 was over 30 µM.
In the case of `COc1cc2nccc(Oc3ccc(NC(=O)C4(C(=O)Nc5ccc(F)cc5)CC4)cc3)c2cc1OC` [CABOZANTINIB], the AC50 in assay [3] is 13 µM; in assay [5], 6.2 µM; in assay [6] it was over 30 µM.
Regarding `CC(C(=O)O)c1ccc2c(c1)[nH]c1ccc(Cl)cc12` (stereo not drawn) [CARPROFEN], in assay [9], the AC50 is over 30 µM.
As to `COc1ccccc1OCCNCC(O)COc1cccc2[nH]c3ccccc3c12` (stereo not drawn) [CARVEDILOL], the AC50 in assay [1], in assay [10] and in assay [2] was over 30 µM in each case.
In assay [3], `C[C@@H](Oc1cc(-c2cnn(C3CCNCC3)c2)cnc1N)c1c(Cl)ccc(F)c1Cl` [CRIZOTINIB] gave an AC50 of over 30 µM.
In turn, `CC(C)N(CCC(C(N)=O)(c1ccccc1)c1ccccn1)C(C)C` (stereo not drawn) [DISOPYRAMIDE] came in with an AC50 in assay [2] of 29.7 µM.
Molecule `CC(C)Cc1ccc(C(C)C(=O)O)cc1` (stereo not drawn) [IBUPROFEN] registered an AC50 in assay [9] of over 30 µM.
Take `CC(=O)O[C@]1(C(C)=O)CC[C@H]2[C@@H]3C=C(C)C4=CC(=O)CC[C@@H]4[C@H]3CC[C@@]21C` [NOMEGESTROL ACETATE]: the AC50 in assay [1] was over 30 µM.
For the molecule `CO[C@H]1/C=C/O[C@@]2(C)Oc3c(C)c(O)c4c(O)c(c(/C=N/N5CCN(C)CC5)c(O)c4c3C2=O)NC(=O)/C(C)=C\C=C\[C@H](C)[C@H](O)[C@@H](C)[C@@H](O)[C@@H](C)[C@H](OC(C)=O)[C@@H]1C` [RIFAMPIN], in [9], the AC50 is over 30 µM.
Regarding `CN(C)CCc1c[nH]c2ccc(Cn3cncn3)cc12` [RIZATRIPTAN], the AC50 in assay [10] is over 30 µM.
Regarding `N[C@@H](CC(=O)N1CCn2c(nnc2C(F)(F)F)C1)Cc1cc(F)c(F)cc1F` [SITAGLIPTIN], the AC50 in [8] and in assay [11] was over 10 µM throughout.
Consider `CCN(CC)CCNC(=O)c1c(C)[nH]c(/C=C2\C(=O)Nc3ccc(F)cc32)c1C` [SUNITINIB], for which the AC50 is over 10 µM in assay [8], 10 µM in assay [11] and over 30 µM in [9].
Take `C=CC[C@@H]1/C=C(\C)C[C@H](C)C[C@H](OC)[C@H]2O[C@@](O)(C(=O)C(=O)N3CCCC[C@H]3C(=O)O[C@H](/C(C)=C/[C@@H]3CC[C@@H](O)[C@H](OC)C3)[C@H](C)[C@@H](O)CC1=O)[C@H](C)C[C@@H]2OC` [TACROLIMUS ANHYDROUS]: the AC50 in assay [10], in assay [3], in [4], in assay [5], in [6] and in assay [7] was over 30 µM in each case.
Regarding `C[C@H](CCC(=O)O)[C@H]1CC[C@H]2[C@@H]3[C@@H](O)C[C@@H]4C[C@H](O)CC[C@]4(C)[C@H]3CC[C@]12C` [URSODIOL], the AC50 in assay [3] was over 30 µM; in assay [4] it was over 30 µM; in [5], over 30 µM; in assay [6], over 30 µM; in [7], over 10 µM.
Take `Cc1onc(-c2ccccc2)c1-c1ccc(S(N)(=O)=O)cc1` [VALDECOXIB]: the AC50 in assay [8] is over 10 µM; in assay [11], over 10 µM; in assay [2] it was over 30 µM.
In assay [8], `CCCC(CCC)C(=O)O` [VALPROIC ACID] displayed a half-maximal activity concentration (AC50) of over 10 µM.

Values taken from ChEMBL document CHEMBL5291721, “A preclinical secondary pharmacology resource illuminates target-adverse drug reaction associations of marketed drugs” (Nat Commun, 2023).
